Reference: patent US12180255B2, “Compositions and methods for derepressing RE1 silencing transcription factor target genes” (Alcamena Stem Cell Therapeutics, LLC, priority 2019, dated 2024)
*1 amine or outer side, *2 acyl side, *3 side chain or, on linkers, in order; H or OH if unused. Where a SMILES comes first, the peptide text is derived from it. Bridges are numbered along the chain shown (N, C = ends). Where no end group is shown, it is not given here. [ ]: non-standard residue; d: D form. ξ: configuration not given here. ξGly(dodecyl) = CCCCCCCCCCCCC(N)C(=O)O; mXylylene = c1cc(C[*:1])cc(C[*:2])c1

How the values were obtained:
[1] = Localization in spinal cord after injection at sciatic nerve defect; conditions: 1 mg injected into site of sciatic nerve defect, 48 hours
Method: FIG. 5. […] A 0.7 cm coronal spinal cord section from the […] region of a Sprague Dawley (SD) male rat showing the surrounding nuclei of the sciatic nerve, harvested 48 hours after 1 mg (1 mg/mL) of peptide was injected into the sight of a mid-thigh sciatic nerve defect injury.
Dosing and Procedure. […] After 48 hours, the animal was sacrificed and the spinal cord from the L4 to L6 region was sectioned coronally.
Immunohistochemistry. Hoechst 333429 (Calbiochem) dye was used to visualize the nucleus, and FLAG antibody (Sigma-Aldrich) was used to visualize the RPP. Images were taken with a light microscope.

NBFL cells = assay: BDNF, NGF and KV4.3 transcript levels in NBFL cells dosed with linear or cyclic RPP; format: cell-based; conditions: 1 μM
Method: FIG. 9. Comparison of linear and cyclic RPP. […] Efficacy on was assessed by measuring changes in (A) BDNF, (B) NGF, and (C) KV4.3 transcript levels. N=1
Plasmids. RPP (SEQ ID NOS: 2 and 4): One segment of this construct containing T7 promoter, CPP, and His tag was synthesized as a gBlock (Table 8) by IDT and amplified with primers described in Table 8. The PCR reaction (20 μL) was initially heated at 95° C. for 2.5 min followed by 30 cycles of denaturation at 94° C. for 15 sec., annealing at 55° C. for 15 sec., and extension at 72° C. for 30 seconds. Following amplification, PCR fragment was gel-purified by the QIAGEN gel-band purification kit according to manufacturer's protocol.
In vitro Expression. RPP (Table 8) or CP (Table 9) were expressed in vitro using the PURE Express In Vitro Protein Synthesis Kit (New England Biolabs). The RPP (SEQ ID NOS: 2 and 4) or CP sequence was amplified from the RPP (SEQ ID NOS: 2 and 4) or CP expression constructs (Table 8 and 9) with primers listed in Table 8, and gel-purified by the QIAGEN gel-band purification kit. The PCR reaction (20 μL) was initially heated at 95° C. for 2.5 min followed by 30 cycles of denaturation at 94° C. for 15 sec., annealing at 55° C. for 15 sec., and extension at 72° C. for 30 sec. Then, 15 μL of the purified PCR fragment was mixed with 10 μL of Solution A and 7.5 μL of Solution B of the PURE Express In Vitro Protein Synthesis Kit (New England Biolabs) and incubated 2 hours at 37° C. Next, 2 μL of DNAse I was added and incubated for 20 min at 37° C.
Purification. RPP (SEQ ID NOS: 2 and 4) and CP: The final solution from the in vitro expression step was diluted to 100 μL and filtered through the Amicon Ultracel 0.5 mL-100K columns (Sigma) to remove ribosomes. The flow through was added to 100 μL of washed Ni-NTA Magnetic Agarose Beads (Qiagen) and was washed with wash buffer as described by the manufacturer.
Cyclization. The RPP (SEQ ID NO: 2) or was cyclized by mixing the beads with 500 μL of the cyclization solution which was made by mixing 2.65 mL of the 1.33×PBS (66.5 mM phosphate buffer, 400 mM NaCl) with 1.32 mL of dibromo-m-xylene solution in acetonitrile (2.5 mg/mL). Following incubation with the cyclization solution beads were washed once with wash buffer I (PBS with 25 mM imidazole, 0.5 μL/mL of mercaptoethanol), once with wash buffer II (PBS with 25 mM imidazole, 0.5 mM TCEP), twice with wash buffer III (PBS with 25 mM imidazole) and eluted with 50 μL of the elution buffer (PBS with 500 mM imidazole). Imidazole was removed using Bio-Rad Micro Bio-Spin Chromatography columns.
Dosing and Cell Culture. NBFL cells (FIG. 9) grown in 6 well were dosed with 1 μM of linear (SEQ ID NO: 2) or cyclic (SEQ ID NO: 2) RPP (Table 8) or control peptide (Table 9) for 16 or 48 hours.
After dosing, cells were lysed and assessed for BDNF, NGF, and KV4.3 mRNA levels (FIG. 9). All of the primers used have been described except for NGF: forward: 5′[…]3′ (SEQ ID NO: 338) and reverse 5′[…]3′ (SEQ ID NO: 339).

[2] = test system: iPSCs (neural stem cells (NSC)-NL5); assay: Neuronal differentiation of iPSC NSC-NL5 (MAP2, TUJ1 normalized to DAPI); format: cell-based, human; conditions: 7 days
Method: FIG. 11. iPSCs (neural stem cells (NSC)-NL5) were dosed with one of the RPP sequences (3 μM) or water control shown below. After 7 days in culture, cells were assessed for neuronal differentiation using the Microtubule Associated Protein 2 (MAP2) neuronal marker (normalized to DAPI). Media and variants were replaced on Day 3. MAP2 levels are relative to control in the bar graph (standard deviation n=4).
FIG. 12. iPSCs (neural stem cells (NSC)-NL5) were with 1 μM RPP (SEQ ID NO. 9) or water control. After 7 days in culture, cells were assessed for neuronal differentiation using neuronal markers TUJ1 (class III beta-tubulin) and MAP2 (both normalized to DAPI). Media and RPP were replaced on Day 3. (standard deviation, n=6).
FIG. 13. iPSCs (neural stem cells (NSC)-NL5) were with 1 μM RPP (SEQ ID NO. 13) or water control. After 7 days in culture, cells were assessed for neuronal differentiation using neuronal markers TUJ1 and MAP2 (both normalized to DAPI). Media and RPP were replaced on Day 3. (standard deviation, n=6).
Approach 2: Induced pluripotent stem cells (neural stem cells (NSC)-NL5) differentiate after 7 Days of RPP dosing (FIG. 11 (SEQ ID NOS: 5-11, 3 μM); FIG. 12 (SEQ ID NO: 9, 1 μM) FIG. 13 (SEQ ID NO: 13 (FIG. 27), 1 μM)) using the following “Neuron to Blank” protocol: • 1. 24 well culture plates (Black Visiplate) were coated with Matrigel ([…] for 30 minutes at 37° C.). • 2. NSCs-NLS (see media below) were plated at 0.5×10^5 per well.
• 3. After 24 hours (cells should be >70% confluent), the media was changed to neuronal differentiation medium (below) with various concentrations of test peptides or water control added (FIGS. 11, 12, and 13, Table 14). The neuronal differentiation medium, with new test peptides and control, was changed every 2 days for 5 days.
• 4. On Day 7 cells were fixed 4% formaldehyde in 1×PBS for 30 minutes. • 5. Cells were immunolabeled with mouse anti-TUJ1 (1:1000) and rabbit anti-Map2 (1:500) overnight. Then label with 2nd antibody (anti-mouse488, anti-rabbit568 and DAPi) for 1 hour. • 6. Data was collected on a BioTek plate reader • a. Dapi: Excitation 360/40; Emission 460/20, Gain 35; • b. Alexa 488: Excitation 485/20; Emission 528/20, Gain 50; • c. Alexa 568: Excitation 560/20; Emission 620/10, Gain 75).

L5 DRGs = assay: qRT-PCR mRNA expression in ex vivo cultured L5 DRGs; format: cell-based, Sprague Dawley rat; conditions: DRG; 1 μM; 48 h
Method: FIG. 15. […] Error bars =standard error of the mean.
L5 DRGs were dissected from adult male rats and plated in 12-well plates pre-coated with poly-D-Lysine (PDL) and laminin in a minimal volume of medium (250 ul Neurobasal™-A medium (GIBCO) supplemented with B27 (GIBCO), 50 ng/ml NGF (Sigma-Aldrich) and penicillin streptomycin) to allow attachment to the culture plate. One day after plating, DRGs were incubated with RPP (SEQ. ID NO: 12: 1 μM, 3 μM or 10 μM in culture medium, FIGS. 14 and 16; SEQ ID NOS: 13 and 14: 3 μM, FIG. 15) for 48 h. For RNA expression analysis, DRGs were lysed in 300 μl of Qiazol in a 1.5 ml tube containing Bullet Blender Pink Beads using a Bullet Blender Tissue Homogenizer (NextAdvance). Total RNA was extracted using RNeasy Midi Kit (Qiagen) according to manufacturer's instructions. Purified RNA was quantified with NanoDrop 2000 (ThermoFIsher), and reverse transcription was run using High Capacity cDNA Reverse Transcription Kit (Applied Biosystems) and 2 ng/ul RNA per reaction. For qRT-PCR, 5 ul of cDNA (corresponding to 10 ng of RNA) were mixed with to 10 ul SsoAdvanced™ Universal SYBR® Green Supermix (BioRad) and 1 ul of each primer (final primer concentration 500 nM each). Reactions were run in triplicates in a QuantStudio™ 7 Flex Real-Time PCR system (Applied Biosystems). Amplification data were analyzed using the comparative cycle threshold (ΔΔCt) method and β-actin as calibrator. Primers were as follows: β-actin: F-[…] (SEQ ID NO: 340), R-[…] (SEQ ID NO: 333); KV4.3: F-[…] (SEQ ID NO: 341), R-[…] (SEQ ID NO: 342); KV7.2 F-[…] AG (SEQ ID NO: 343), R-[…] (SEQ ID NO: 344); OPRM1: F-[…] (SEQ ID NO: 345), R-[…] (SEQ ID NO: 346).

[3] = test system: mesenchymal progenitor cells (MPCs); assay: BDNF and NGF mRNA expression in MPCs; format: cell-based, human; conditions: MPC, 3 μM
Method: FIG. 10. BDNF and NGF mRNA expression (normalized to actin) in mesenchymal progenitor cells (MPCs), from two patients, after a 48 hour incubation with water (Ctrl) or […] RPP (SEQ. ID NO: 9). mRNA levels are shown relative to control (standard deviation, n=2).
Mesenchymal progenitor cells (MPCs) (FIG. 10) from two patients were plated on 12 well plates and cultured in general medium (GM) (DMEM, 10% FBS, PSF). Lyophilized RPP (SEQ ID NO: 9) was dissolved in water at a concentration of 5 mM (1 mg/34.89, diluted in medium to 3 μM, and then incubated with the cell for 48 hours. The control was water.
MPCs were cultured as described in Gervasi et al., 2020^76.

With CC(C)C[C@H](NC(=O)[C@H](CC(=O)O)NC(=O)[C@H](CCC(=O)O)NC(=O)[C@@H](NC(=O)[C@H](CCCCN)NC(=O)[C@H](CC(=O)O)NC(=O)[C@H](CC(=O)O)NC(=O)[C@H](CC(=O)O)NC(=O)[C@H](CC(=O)O)NC(=O)[C@H](CCCCN)NC(=O)[C@H](Cc1ccc(O)cc1)NC(=O)[C@H](CC(=O)O)NC(=O)[C@H](CCCCN)NC(=O)[C@H](CCC(N)=O)NC(=O)[C@H](C)NC(=O)[C@@H](N)CS)[C@@H](C)O)C(=O)N[C@@H](CCC(=O)O)C(=O)N1CCC[C@H]1C(=O)N1CCC[C@H]1C(=O)N[C@@H](CCC(=O)O)C(=O)N1CCC[C@H]1C(=O)N1CCC[C@H]1C(=O)N[C@@H](CC(C)C)C(=O)N1CCC[C@H]1C(=O)N[C@@H](CCCCN)C(=O)N[C@@H](CCC(=O)O)C(=O)N[C@@H](CC(N)=O)C(=O)NCC(=O)N[C@@H](CCCNC(=N)N)C(=O)N[C@@H](CCCCN)C(=O)N[C@@H](CCCCN)C(=O)N[C@@H](CCCNC(=N)N)C(=O)N[C@@H](CCCNC(=N)N)C(=O)N[C@@H](CCC(N)=O)C(=O)N[C@@H](CCCNC(=N)N)C(=O)N[C@@H](CCCNC(=N)N)C(=O)N[C@@H](CCCNC(=N)N)C(=O)NCC(=O)O [SEQ ID NO: 4] (H-CAQKDYKDDDDKTEDLEPPEPPLPKENGRKKRRQRRRG-OH; N-terminus and C-terminus assumed) the “localization in nuclei of sciatic nerve neurons in spinal cord” value [1] was “accumulates in the nuclei of the sciatic nerve in spinal cord” and the “localization in nuclei of sciatic nerve neurons in spinal cord” value ([1]; listed as Linear RPP) was “accumulates in the nucleus of sciatic nerve tissue”.

With “MCTEDLEPPEPPLPKENCGSGSGRKKRRQRRRGGSGSLGHHHHHHGTGY (linker 2-18 via mXylylene (inferred)) [SEQ ID NO: 2, RPP-CPP-His, cyclized with dibromo-m-xylene]” the “Increase, BDNF mRNA” value (NBFL cells; 16 h) was 5x, the “Increase, KV4.3 mRNA” value (NBFL cells; 16 h) was 5x and the “Increase, NGF mRNA” value (NBFL cells; 16 h) was 3.2x. The “Increase, BDNF mRNA” value (NBFL cells; 48 h) was 2.3x, the “Increase, KV4.3 mRNA” value (NBFL cells; 48 h) was 5x and the “Increase, NGF mRNA” value (NBFL cells; 48 h) was 1.7x. For the same molecule, the “Increase, BDNF mRNA” value (NBFL cells; 48 h, listed as Cyclic) was 1.75× x, the “Increase, KV4.3 mRNA” value (NBFL cells; 48 h, listed as Cyclic) was 25× x and the “Increase, NGF mRNA” value (NBFL cells; 48 h, listed as Cyclic) was 1.87 x.

In the case of “SEQ ID NO: 13: CPP with poly arginine sequence and two 2-aminotetradecanoic acids integrated with the REST RI phosphomimetic ([dR][dR][ξGly(dodecyl)][dR][dR][ξGly(dodecyl)][dR][dR][dR][dR][dR][dK][dP][dL][dP][dP][dE][dP][dP][dE][dL][dD][dE])”, the “increase of differentiation, MAP2 normalized to DAPI” value ([2]; 0.1 μM) is reported as 27%, the “increase of differentiation, TUJ1 normalized to DAPI” value ([2]; 0.1 μM) is reported as 60% and the “increase of differentiation, MAP2 normalized to DAPI” value ([2]; 1 μM) is reported as 2 times. The “increase of differentiation, TUJ1 normalized to DAPI” value ([2]; 1 μM) was 3 times and the “Increase, Nav1.8 mRNA” value (L5 DRGs) was 6x.

For “rrrrwrrwwrrwrrnekplppeppeldet ([dR][dR][dR][dR][dW][dR][dR][dW][dW][dR][dR][dW][dR][dR][dN][dE][dK][dP][dL][dP][dP][dE][dP][dP][dE][dL][dD][dE][dT]) [SEQ ID NO: 9]”, the “Increase, BDNF mRNA” value ([3]; 48 h) was 2x, the “Increase, NGF mRNA” value ([3]; 48 h) was 2.9x and the “increase of BDNF relative to water control” value ([3]; 48 hours) was “approximately 2 times”. The “increase of NGF relative to water control” value ([3]; 48 hours) was ~3 times.
